# Reference: paper PMC10709440, “High-throughput ligand profile characterization in novel cell lines expressing seven heterologous insect olfactory receptors for the detection of volatile plant biomarkers” (Scientific Reports, 2023)
# Key:
# Assay in all cases: cell-based
# Parameters in all cases: GCaMP6 calcium fluorescence in stable HEK293 OR+ORCO lines; peak dF normalised to 50 uM VUAA1 (=1)
# Drosophila OR10a = target: T1, Drosophila OR10a (Drosophila melanogaster, UniProt Q9VYZ1); conditions: relative to 50 uM VUAA1 response, below 0.05 set to 0; for activity at 1 µM / activity at 10 µM / activity at 100 µM: HEK293, read-out: % activation; for % activation: agonist
# T1 construct: expressed in transfected cells
# T1 sequence (Q9VYZ1 1-406): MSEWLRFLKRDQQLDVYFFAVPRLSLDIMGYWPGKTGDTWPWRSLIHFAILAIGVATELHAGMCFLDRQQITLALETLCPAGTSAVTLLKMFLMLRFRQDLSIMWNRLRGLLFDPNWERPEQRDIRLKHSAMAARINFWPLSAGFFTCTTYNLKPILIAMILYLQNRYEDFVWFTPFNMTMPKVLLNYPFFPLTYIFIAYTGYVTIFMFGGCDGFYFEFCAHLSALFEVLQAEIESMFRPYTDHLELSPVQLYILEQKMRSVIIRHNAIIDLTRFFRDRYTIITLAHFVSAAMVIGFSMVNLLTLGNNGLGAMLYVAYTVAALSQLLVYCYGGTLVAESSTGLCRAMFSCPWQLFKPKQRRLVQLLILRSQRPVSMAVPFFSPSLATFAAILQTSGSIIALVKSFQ
# T1 sequence (Q9VNB5 1-486 partner): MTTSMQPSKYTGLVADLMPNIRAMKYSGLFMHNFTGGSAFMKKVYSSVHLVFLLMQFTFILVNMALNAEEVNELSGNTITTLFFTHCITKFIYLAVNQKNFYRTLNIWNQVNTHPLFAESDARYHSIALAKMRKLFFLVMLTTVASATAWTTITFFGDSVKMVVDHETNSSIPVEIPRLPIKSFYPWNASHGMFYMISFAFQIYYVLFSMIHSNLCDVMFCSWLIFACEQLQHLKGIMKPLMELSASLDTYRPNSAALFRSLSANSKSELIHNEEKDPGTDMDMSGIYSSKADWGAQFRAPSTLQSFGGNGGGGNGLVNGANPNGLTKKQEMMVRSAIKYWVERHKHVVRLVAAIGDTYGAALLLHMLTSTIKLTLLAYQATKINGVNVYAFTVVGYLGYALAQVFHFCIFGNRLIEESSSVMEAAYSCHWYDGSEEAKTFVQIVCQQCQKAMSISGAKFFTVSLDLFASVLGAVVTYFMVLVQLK
# Protocol: (§1) Twelve thousand to 18,000 cells were plated into each well of a black wall, transparent bottom 384-well microplate (Greiner) 48 h or 72 h before the measurements and were simultaneously treated with 1 μg/mL doxycycline. […] The plate has 24 columns, thus we could record responses in up to eight different cell lines in each plate. On the day of the experiment, the growth medium was replaced with 20 µL assay buffer/well (140 mM NaCl, 5 mM KCl, 2 mM CaCl2, 1 mM MgCl2, 5 mM HEPES-Na, 20 mM glucose, pH 7.3, 340 mOsm). […] Baseline fluorescence (F0) was recorded for 5 s, after which 7 µL VOC buffer (140 mM NaCl, 5 mM KCl, 2 mM CaCl2, 1 mM MgCl2, 5 mM HEPES-Na, 31 mM glucose, 0.1% DMSO, pH 7.3, 340 mOsm) was injected into each well in one row and the fluorescence response was recorded for an additional 30 s, at a rate of one read/sec. VOC solutions (VOC buffer with 4× concentration of the final measured VOC concentration, 9 µL/well was injected) were measured on the same wells in a second round with the same protocol. Each individual concentration of a specific VOC sample was recorded in three wells for the same cell line on the same microplate. The raw data were exported in xls file format, F0 and FMAX values, and the fluorescence intensity changes (∆F) were calculated in Excel (Microsoft) (Supplementary file Data summary.xlsx) using the following equation: ΔF=FMAX-F0/F0 (see also Fig. 1C). On each plate, we recorded the response of each cell line to 50 µM VUAA1. The average of these ∆F values of each cell line were used to calculate the VUAA1-normalized values for the rest of the plate, by dividing VOC response ∆F values by the average VUAA1 response ∆F value of the corresponding OR cell line. Each VOC-OR combination was measured three times as tec The recorded FMAX, F0, ∆F, VUAA1-normalized ∆F values, as well as the OR name, the name of the tested sample, and the final concentration for each well were copied into supplementary file Data summary.xlsx, that was used to summarize all the plates recorded. Here, the averages of the measurements were calculated for each receptor-VOC-concentration combination. […] Each VOC was measured at 1, 10, and 100 µM final concentration on each receptor. VUAA1-normalized response was calculated as described in methods.
# Drosophila OR13a = target: T2, Drosophila OR13a (Drosophila melanogaster, UniProt Q9VXL0); conditions: HEK293; relative to 50 uM VUAA1 response; below 0.05 set to 0; read-out: % activation
# T2 construct: expressed in transfected cells
# T2 sequence (Q9VXL0 1-418): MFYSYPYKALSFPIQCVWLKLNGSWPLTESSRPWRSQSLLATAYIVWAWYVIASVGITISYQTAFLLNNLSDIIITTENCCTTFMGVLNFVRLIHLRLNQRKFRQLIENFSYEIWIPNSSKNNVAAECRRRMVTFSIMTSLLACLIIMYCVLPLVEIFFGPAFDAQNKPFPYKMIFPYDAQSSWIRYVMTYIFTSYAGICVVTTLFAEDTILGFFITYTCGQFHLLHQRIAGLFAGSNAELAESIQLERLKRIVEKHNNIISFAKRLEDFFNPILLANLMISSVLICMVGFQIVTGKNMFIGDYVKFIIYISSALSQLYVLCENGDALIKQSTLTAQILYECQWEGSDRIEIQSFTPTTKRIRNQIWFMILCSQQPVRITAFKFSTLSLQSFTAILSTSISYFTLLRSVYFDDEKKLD
# T2 sequence (Q9VNB5 1-486 partner): T1 sequence (Q9VNB5 1-486 partner)
# Protocol: as §1
# Drosophila OR71a = target: T3, Drosophila OR71a (Drosophila melanogaster, UniProt Q9VUK5); conditions: HEK293; relative to 50 uM VUAA1 response; below 0.05 set to 0; read-out: % activation
# T3 construct: expressed in transfected cells
# T3 sequence (Q9VUK5 1-378): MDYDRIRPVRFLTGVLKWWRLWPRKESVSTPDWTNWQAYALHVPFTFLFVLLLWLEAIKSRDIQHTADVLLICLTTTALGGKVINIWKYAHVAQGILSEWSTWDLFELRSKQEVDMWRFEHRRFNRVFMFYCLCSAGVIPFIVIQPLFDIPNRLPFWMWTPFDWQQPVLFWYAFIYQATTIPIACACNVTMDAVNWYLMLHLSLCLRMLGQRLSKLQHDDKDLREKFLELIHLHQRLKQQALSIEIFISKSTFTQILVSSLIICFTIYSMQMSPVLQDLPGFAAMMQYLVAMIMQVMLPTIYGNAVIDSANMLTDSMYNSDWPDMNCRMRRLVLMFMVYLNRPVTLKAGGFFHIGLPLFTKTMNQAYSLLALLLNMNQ
# T3 sequence (Q9VNB5 1-486 partner): T1 sequence (Q9VNB5 1-486 partner)
# Protocol: as §1
SMILES,activity at 1 µM (Drosophila OR10a) [%],activity at 10 µM (Drosophila OR10a) [%],activity at 100 µM (Drosophila OR10a) [%],activity at 1 µM (Drosophila OR13a) [%],activity at 10 µM (Drosophila OR13a) [%],activity at 100 µM (Drosophila OR13a) [%],activity at 1 µM (Drosophila OR71a) [%],activity at 10 µM (Drosophila OR71a) [%],activity at 100 µM (Drosophila OR71a) [%],"% activation (Drosophila OR10a; 10 µM, 10 / OR10a) [%]","% activation (Drosophila OR10a; 100 µM, 100 / OR10a) [%]"
C=C1CC[C@@]23C[C@@H]1C(C)(C)[C@@H]2CC[C@H]3C [(+)-beta-cedrene],0,0,0,0,0,0,0,0,0,,
CCCCCOC(C)=O [pentyl acetate],,,,,,,,,8.7,,
"C=C(C)C1CCC2(C)OC2C1 (single isomer, unassigned; (+)) [(+)-limonene oxide]",0,0,0,0,0,0,0,0,0,,
CC1=CCC[C@@]2(C)[C@@H]3CC[C@]12CC3(C)C [(−)-α-neoclovene],,13.1,12.4,,,,,,,,
C=C(C)[C@H]1CC=C(C)CC1 [(R)-(+)-limonene],0,,,0,0,0,0,0,0,0.1196,
Cc1ccc(C)cc1 [p-xylene],,,,,,,,6.15,,,
C=C1[C@H]2CC[C@@H]3[C@H]2C(C)(C)CCC[C@]13C [(+)-longifolene],8.31,5.37,0,0,0,0,0,0,0,,
COC(=O)c1ccccc1O [methyl salicylate],,,,,,,,,11.5,,
C=C(C)[C@H]1CC=C(C)CC1 [limonene],,,,,,,,,,0,0.05729
OCCc1ccccc1 [phenethyl alcohol],,,,,,,8.62,,,,
